Laboratory results from patent US9303012B2, “Pyridine-2-amides useful as CB2 agonists” (Hoffmann-La Roche Inc., priority 2012, dated 2016).

Assays:
[1] = target: human CB2 receptors (Homo sapiens (Human), UniProt P34972); experiment: functional cAMP assay, CHO cells expressing human CB2 receptors; type: cell-based
How it was run: (§1)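 Compound exposure lasted 30 min at 30 °C in IBMX (1 mM)-containing Krebs Ringer bicarbonate buffer, applied to human CB1- or CB2-expressing CHO cells. Lysates were read by time-resolved FRET cAMP detection, converted via cAMP standard curve (10 μM–0.13 nM), and EC50 values calculated.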

[2] = target: human CB1 receptors (Homo sapiens (Human), UniProt P21554); experiment: functional cAMP assay, CHO cells expressing human CB1 receptors; type: cell-based
human CB1 receptors, sequence (P21554 whole entry): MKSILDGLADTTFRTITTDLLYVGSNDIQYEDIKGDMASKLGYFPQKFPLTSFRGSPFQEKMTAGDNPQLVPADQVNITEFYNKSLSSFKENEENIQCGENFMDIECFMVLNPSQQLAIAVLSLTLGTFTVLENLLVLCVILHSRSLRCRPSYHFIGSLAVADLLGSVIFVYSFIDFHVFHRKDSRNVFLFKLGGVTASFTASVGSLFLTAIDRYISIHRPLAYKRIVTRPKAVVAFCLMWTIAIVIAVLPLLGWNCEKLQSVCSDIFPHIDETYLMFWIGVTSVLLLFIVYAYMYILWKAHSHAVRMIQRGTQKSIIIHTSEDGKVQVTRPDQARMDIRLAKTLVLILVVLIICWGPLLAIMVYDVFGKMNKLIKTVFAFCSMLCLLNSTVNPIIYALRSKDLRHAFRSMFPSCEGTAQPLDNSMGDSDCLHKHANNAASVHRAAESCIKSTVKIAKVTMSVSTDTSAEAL
How it was run: as §1

human CB2 receptors, sequence (P34972 whole entry): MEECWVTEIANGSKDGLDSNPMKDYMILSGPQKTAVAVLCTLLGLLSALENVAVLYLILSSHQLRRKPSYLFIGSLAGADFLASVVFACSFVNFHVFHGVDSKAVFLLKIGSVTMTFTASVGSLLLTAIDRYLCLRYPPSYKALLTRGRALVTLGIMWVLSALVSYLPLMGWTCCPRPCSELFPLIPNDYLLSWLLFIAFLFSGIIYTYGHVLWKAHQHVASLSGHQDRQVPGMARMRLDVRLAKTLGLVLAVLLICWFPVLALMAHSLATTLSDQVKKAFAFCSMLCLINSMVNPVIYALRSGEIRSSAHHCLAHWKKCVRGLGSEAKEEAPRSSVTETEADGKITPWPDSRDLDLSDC

SMILES | EC50 [1] [nM] | EC50 [2] [nM]
O=C(c1ccc(N2CC(F)(F)C2)c(OCC2CC2)n1)N1CCC2(CC(O)CO2)C1 (stereo not shown) [Example 82, [6-Cyclopropylmethoxy-5-(3,3-difluoro-azetidin-1-yl)-pyridin-2-yl]-(3-hydroxy-1-oxa-7-aza-spiro[4.4]non-7-yl)-methanone] | 356 | > 10000
O=C(c1ccc(N2CC(F)(F)C2)c(OCC2CC2)n1)N1CC2(CC(O)CO2)C1 (stereo not shown) [Example 83, [6-Cyclopropylmethoxy-5-(3,3-difluoro-azetidin-1-yl)-pyridin-2-yl]-(7-hydroxy-5-oxa-2-aza-spiro[3.4]oct-2-yl)-methanone] | 760 | > 10000
CC1(C)CCCN1C(=O)c1ccc(C2CC2)c(OCC(F)(F)C(F)(F)F)n1 [Example 84, [5-Cyclopropyl-6-(2,2,3,3,3-pentafluoro-propoxy)-pyridin-2-yl]-(2,2-dimethyl-pyrrolidin-1-yl)-methanone] | 18.9 | > 10000
O=C(c1ccc(N2CC(F)(F)C2)c(OCC2CC2)n1)N1C[C@H]2CC[C@@H](C1)O2 [Example 85, [6-Cyclopropylmethoxy-5-(3,3-difluoro-azetidin-1-yl)-pyridin-2-yl]-(1S,5R)-8-oxa-3-aza-bicyclo[3.2.1]oct-3-yl-methanone] | 85.4 | > 10000
O=C(c1ccc(N2CC(F)(F)C2)c(OCC2CC2)n1)N1[C@@H]2CC[C@H]1COC2 [Example 86, [6-Cyclopropylmethoxy-5-(3,3-difluoro-azetidin-1-yl)-pyridin-2-yl]-(1R,5S)-3-oxa-8-aza-bicyclo[3.2.1]oct-8-yl-methanone] | 72.7 | > 10000
NC(=O)[C@H]1CC(F)(F)CN1C(=O)c1ccc(C2CC2)c(OCC(F)(F)C(F)(F)F)n1 [Example 87, (R)-1-[5-Cyclopropyl-6-(2,2,3,3,3-pentafluoro-propoxy)-pyridine-2-carbonyl]-4,4-difluoro-pyrrolidine-2-carboxylic acid amide] | 768 | > 10000
NC(=O)C1CCCCN1C(=O)c1ccc(C2CC2)c(OCC2CC2)n1 (stereo not shown) [Example 88, 1-(5-Cyclopropyl-6-cyclopropylmethoxy-pyridine-2-carbonyl)-piperidine-2-carboxylic acid amide] | 180 | > 10000
NC(=O)C1CSCCN1C(=O)c1ccc(C2CC2)c(OCC2CC2)n1 (stereo not shown) [Example 89, 4-(5-Cyclopropyl-6-cyclopropylmethoxy-pyridine-2-carbonyl)-thiomorpholine-3-carboxylic acid amide] | 318 | > 10000
CC1(C)CC(C(N)=O)N(C(=O)c2ccc(C3CC3)c(OCC3CC3)n2)C1 (stereo not shown) [Example 90, 1-(5-Cyclopropyl-6-cyclopropylmethoxy-pyridine-2-carbonyl)-4,4-dimethyl-pyrrolidine-2-carboxylic acid amide] | 14.8 | > 10000
NC(=O)[C@H]1CCCCN1C(=O)c1ccc(C2CC2)c(OCC2CC2)n1 [Example 91, (+)-1-(5-Cyclopropyl-6-cyclopropylmethoxy-pyridine-2-carbonyl)-piperidine-2-carboxylic acid amide] | 893 | > 10000
NC(=O)[C@@H]1CCCCN1C(=O)c1ccc(C2CC2)c(OCC2CC2)n1 [Example 92, (−)-1-(5-Cyclopropyl-6-cyclopropylmethoxy-pyridine-2-carbonyl)-piperidine-2-carboxylic acid amide] | 101 | > 10000
NC(=O)[C@@H]1CSCCN1C(=O)c1ccc(C2CC2)c(OCC2CC2)n1 [Example 93, (−)-4-(5-Cyclopropyl-6-cyclopropylmethoxy-pyridine-2-carbonyl)-thiomorpholine-3-carboxylic acid amide] | 327 | > 10000
CC1(C)C[C@H](C(N)=O)N(C(=O)c2ccc(C3CC3)c(OCC3CC3)n2)C1 [Example 94, (+)-1-(5-Cyclopropyl-6-cyclopropylmethoxy-pyridine-2-carbonyl)-4,4-dimethyl-pyrrolidine-2-carboxylic acid amide] | 80.2 | > 10000
CC1(C)C[C@@H](C(N)=O)N(C(=O)c2ccc(C3CC3)c(OCC3CC3)n2)C1 [Example 95, (−)-1-(5-Cyclopropyl-6-cyclopropylmethoxy-pyridine-2-carbonyl)-4,4-dimethyl-pyrrolidine-2-carboxylic acid amide] | 10.4 | > 10000
NC(=O)C1CSCN1C(=O)c1ccc(C2CC2)c(OCC2CC2)n1 (stereo not shown) [Example 96, 3-(5-Cyclopropyl-6-cyclopropylmethoxy-pyridine-2-carbonyl)-thiazolidine-4-carboxylic acid amide] | 103 | > 10000
NC(=O)[C@@H]1CSCN1C(=O)c1ccc(C2CC2)c(OCC2CC2)n1 [Example 97, (−)-3-(5-Cyclopropyl-6-cyclopropylmethoxy-pyridine-2-carbonyl)-thiazolidine-4-carboxylic acid amide] | 72.3 | > 10000
O=C(c1ccc(N2CC(F)(F)C2)c(OCC2CC2)n1)N1CC2(CCCO2)C1 [Example 99, [6-Cyclopropylmethoxy-5-(3,3-difluoro-azetidin-1-yl)-pyridin-2-yl]-(5-oxa-2-aza-spiro[3.4]oct-2-yl)-methanone] | 305 | > 10000
O=C(c1ccc(N2CC(F)(F)C2)c(OCC2CC2)n1)N1CCC2(CCCO2)C1 (stereo not shown) [Example 100, [6-Cyclopropylmethoxy-5-(3,3-difluoro-azetidin-1-yl)-pyridin-2-yl]-(1-oxa-7-aza-spiro[4.4]non-7-yl)-methanone] | 20.8 | > 10000
O=C(c1ccc(N2CC(F)(F)C2)c(OCC2CC2)n1)N1CCCC12CCC2 [Example 101, (5-Aza-spiro[3.4]oct-5-yl)-[6-cyclopropylmethoxy-5-(3,3-difluoro-azetidin-1-yl)-pyridin-2-yl]-methanone] | 4.9 | > 10000
O=C(c1ccc(N2CC(F)(F)C2)c(OCC2CC2)n1)N1CC(F)(F)C1 [Example 102, [6-Cyclopropylmethoxy-5-(3,3-difluoro-azetidin-1-yl)-pyridin-2-yl]-(3,3-difluoro-azetidin-1-yl)-methanone] | 181 | > 10000
O=C(c1ccc(N2CC(F)(F)C2)c(OCC2CC2)n1)N1CCC2(CC2)C1 [Example 104, (5-Aza-spiro[2.4]hept-5-yl)-[6-cyclopropylmethoxy-5-(3,3-difluoro-azetidin-1-yl)-pyridin-2-yl]-methanone] | 7.4 | > 10000
CN(CC1CC1)C(=O)c1ccc(N2CC(F)(F)C2)c(OCC2CC2)n1 [Example 105, 6-Cyclopropylmethoxy-5-(3,3-difluoro-azetidin-1-yl)-pyridine-2-carboxylic acid cyclopropylmethyl-methyl-amide] | 218 | > 10000
O=C(c1ccc(N2CC(F)(F)C2)c(OCC2CC2)n1)N1CCN(CC2CC2)CC1 [Example 106, [6-Cyclopropylmethoxy-5-(3,3-difluoro-azetidin-1-yl)-pyridin-2-yl]-(4-cyclopropylmethyl-piperazin-1-yl)-methanone] | 123 | > 10000
